Data: PMC6111308, “Antimycobacterial, Enzyme Inhibition, and Molecular Interaction Studies of Psoromic Acid in Mycobacterium tuberculosis: Efficacy and Safety Investigations” (Journal of Clinical Medicine, 2018)

Target: T1, arylamine-N-acetyltransferase (TBNAT) (Mycobacterium tuberculosis, UniProt P9WJI5)
T1 construct: gene nat
T1 sequence (P9WJI5 1-283): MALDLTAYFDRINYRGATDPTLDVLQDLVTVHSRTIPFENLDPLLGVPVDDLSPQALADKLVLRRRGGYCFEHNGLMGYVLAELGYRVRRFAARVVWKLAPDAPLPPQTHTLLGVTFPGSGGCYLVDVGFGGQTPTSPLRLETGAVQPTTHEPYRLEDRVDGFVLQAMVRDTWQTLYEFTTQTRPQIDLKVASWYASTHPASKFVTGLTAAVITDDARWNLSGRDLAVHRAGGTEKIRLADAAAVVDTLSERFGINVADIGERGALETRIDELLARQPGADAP
Assay: biochemical

SMILES | IC50 [µM]
NNC(=O)c1ccncc1 [INH, isoniazid] | 6.2
COc1cc(C(=O)O)c2c(c1C)OC(=O)c1c(C)cc(O)c(C=O)c1O2 [PA, psoromic acid] | 8.7
